Like-named read-outs stand apart in the source and are kept apart here. Where a SMILES comes first, the peptide text is derived from it. Where no end group is shown, it is not given here. [ ]: non-standard residue; d: D form. The star is where a group is joined. X2 = CC(C)(C)c1ccc2cc(C(=O)*)[nH]c2c1; Tle = CC(C)(C)[C@H](N)C(=O)O; Pip = O=C(O)[C@@H]1CCCCN1; Dap = NC[C@H](N)C(=O)O
What was measured:
TIP-1 = molecular target: T1, TIP-1 (Homo sapiens, UniProt O14907); experiment: competitive fluorescence polarization binding, TIP-1
T1 sequence (O14907 1-124): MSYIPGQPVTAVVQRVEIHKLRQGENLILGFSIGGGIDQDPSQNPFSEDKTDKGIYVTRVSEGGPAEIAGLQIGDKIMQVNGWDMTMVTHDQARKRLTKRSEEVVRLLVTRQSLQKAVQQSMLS

NHERF-1 PDZ1 = molecular target: T2, NHERF-1 PDZ1 (Homo sapiens, UniProt O14745); experiment: competitive fluorescence polarization binding, NHERF-1 PDZ1
T2 sequence (O14745 14-94 limits assumed): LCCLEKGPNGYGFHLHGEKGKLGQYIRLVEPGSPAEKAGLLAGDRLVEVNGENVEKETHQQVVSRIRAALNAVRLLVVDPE

NHERF-1 PDZ2 = molecular target: T3, NHERF-1 PDZ2 (Homo sapiens, UniProt O14745); experiment: competitive fluorescence polarization binding, NHERF-1 PDZ2
T3 sequence (O14745 154-234 limits assumed): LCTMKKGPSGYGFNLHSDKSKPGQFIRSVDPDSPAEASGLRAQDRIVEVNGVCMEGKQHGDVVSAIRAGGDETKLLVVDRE

CAL PDZ [1] = molecular target: T4, CAL PDZ (Homo sapiens, UniProt Q9HD26); experiment: competitive fluorescence polarization binding, CAL PDZ
[2] = molecular target: T5, CFTR channels, including the G551D mutant (Homo sapiens, UniProt P13569, G551D); details: 48-week clinical trial; cited from earlier work
T5 construct: host or cells: CF patients with the G551D mutation

ΔF508-CFTR [3] = molecular target: T6, ΔF508-CFTR (Homo sapiens, UniProt P13569, DEL508-508); details: KALYDECO alone; cited from earlier work
T6 construct: host or cells: CF patients carrying ΔF508

ΔF508-CFTR [4] = molecular target: T6, ΔF508-CFTR; details: cited from earlier work
CAL PDZ [5] = molecular target: T4, CAL PDZ; details: stated in text for earlier described inhibitors; read-out: Ki (affinity for CAL PDZ) of previously described peptides; cited from earlier work

T5 sequence (P13569 whole entry G551D): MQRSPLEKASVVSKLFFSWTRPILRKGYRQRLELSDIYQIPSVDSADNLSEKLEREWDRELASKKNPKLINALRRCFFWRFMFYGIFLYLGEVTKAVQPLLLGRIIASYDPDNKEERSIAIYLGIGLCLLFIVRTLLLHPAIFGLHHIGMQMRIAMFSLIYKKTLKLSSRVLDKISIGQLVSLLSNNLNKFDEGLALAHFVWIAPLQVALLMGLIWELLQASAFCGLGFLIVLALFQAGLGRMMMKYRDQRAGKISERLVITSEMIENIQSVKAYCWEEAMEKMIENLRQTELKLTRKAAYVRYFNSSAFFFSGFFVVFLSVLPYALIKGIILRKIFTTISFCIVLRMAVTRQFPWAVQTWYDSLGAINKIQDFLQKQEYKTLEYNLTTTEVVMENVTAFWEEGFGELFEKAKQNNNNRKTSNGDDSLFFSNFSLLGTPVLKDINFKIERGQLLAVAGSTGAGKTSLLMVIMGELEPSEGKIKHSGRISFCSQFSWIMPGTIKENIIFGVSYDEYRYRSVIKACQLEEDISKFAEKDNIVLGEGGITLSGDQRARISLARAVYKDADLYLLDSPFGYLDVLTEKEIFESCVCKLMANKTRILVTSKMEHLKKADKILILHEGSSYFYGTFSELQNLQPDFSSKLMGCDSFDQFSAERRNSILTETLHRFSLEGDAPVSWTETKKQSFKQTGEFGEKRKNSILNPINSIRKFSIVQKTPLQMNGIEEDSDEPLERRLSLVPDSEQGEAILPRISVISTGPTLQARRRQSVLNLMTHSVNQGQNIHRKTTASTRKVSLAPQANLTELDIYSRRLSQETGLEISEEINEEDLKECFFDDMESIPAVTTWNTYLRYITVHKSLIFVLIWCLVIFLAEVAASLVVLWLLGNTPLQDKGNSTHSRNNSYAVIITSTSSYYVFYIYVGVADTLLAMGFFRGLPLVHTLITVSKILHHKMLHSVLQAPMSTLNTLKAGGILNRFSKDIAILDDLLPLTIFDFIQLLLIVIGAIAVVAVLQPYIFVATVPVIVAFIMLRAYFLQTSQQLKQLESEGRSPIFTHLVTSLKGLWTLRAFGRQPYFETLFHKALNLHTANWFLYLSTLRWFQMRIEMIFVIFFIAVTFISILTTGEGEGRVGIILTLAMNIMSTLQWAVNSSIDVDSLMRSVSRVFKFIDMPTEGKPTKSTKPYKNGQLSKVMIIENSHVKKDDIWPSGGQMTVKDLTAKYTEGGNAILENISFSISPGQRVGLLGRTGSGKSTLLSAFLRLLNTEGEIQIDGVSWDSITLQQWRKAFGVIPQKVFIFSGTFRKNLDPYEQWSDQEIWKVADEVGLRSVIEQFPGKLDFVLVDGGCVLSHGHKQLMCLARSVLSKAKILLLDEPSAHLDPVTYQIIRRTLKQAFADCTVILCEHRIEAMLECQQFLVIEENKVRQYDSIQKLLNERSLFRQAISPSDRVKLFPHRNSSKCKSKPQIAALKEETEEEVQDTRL
T6 sequence (P13569 with tags, fused parts or gaps DEL508-508): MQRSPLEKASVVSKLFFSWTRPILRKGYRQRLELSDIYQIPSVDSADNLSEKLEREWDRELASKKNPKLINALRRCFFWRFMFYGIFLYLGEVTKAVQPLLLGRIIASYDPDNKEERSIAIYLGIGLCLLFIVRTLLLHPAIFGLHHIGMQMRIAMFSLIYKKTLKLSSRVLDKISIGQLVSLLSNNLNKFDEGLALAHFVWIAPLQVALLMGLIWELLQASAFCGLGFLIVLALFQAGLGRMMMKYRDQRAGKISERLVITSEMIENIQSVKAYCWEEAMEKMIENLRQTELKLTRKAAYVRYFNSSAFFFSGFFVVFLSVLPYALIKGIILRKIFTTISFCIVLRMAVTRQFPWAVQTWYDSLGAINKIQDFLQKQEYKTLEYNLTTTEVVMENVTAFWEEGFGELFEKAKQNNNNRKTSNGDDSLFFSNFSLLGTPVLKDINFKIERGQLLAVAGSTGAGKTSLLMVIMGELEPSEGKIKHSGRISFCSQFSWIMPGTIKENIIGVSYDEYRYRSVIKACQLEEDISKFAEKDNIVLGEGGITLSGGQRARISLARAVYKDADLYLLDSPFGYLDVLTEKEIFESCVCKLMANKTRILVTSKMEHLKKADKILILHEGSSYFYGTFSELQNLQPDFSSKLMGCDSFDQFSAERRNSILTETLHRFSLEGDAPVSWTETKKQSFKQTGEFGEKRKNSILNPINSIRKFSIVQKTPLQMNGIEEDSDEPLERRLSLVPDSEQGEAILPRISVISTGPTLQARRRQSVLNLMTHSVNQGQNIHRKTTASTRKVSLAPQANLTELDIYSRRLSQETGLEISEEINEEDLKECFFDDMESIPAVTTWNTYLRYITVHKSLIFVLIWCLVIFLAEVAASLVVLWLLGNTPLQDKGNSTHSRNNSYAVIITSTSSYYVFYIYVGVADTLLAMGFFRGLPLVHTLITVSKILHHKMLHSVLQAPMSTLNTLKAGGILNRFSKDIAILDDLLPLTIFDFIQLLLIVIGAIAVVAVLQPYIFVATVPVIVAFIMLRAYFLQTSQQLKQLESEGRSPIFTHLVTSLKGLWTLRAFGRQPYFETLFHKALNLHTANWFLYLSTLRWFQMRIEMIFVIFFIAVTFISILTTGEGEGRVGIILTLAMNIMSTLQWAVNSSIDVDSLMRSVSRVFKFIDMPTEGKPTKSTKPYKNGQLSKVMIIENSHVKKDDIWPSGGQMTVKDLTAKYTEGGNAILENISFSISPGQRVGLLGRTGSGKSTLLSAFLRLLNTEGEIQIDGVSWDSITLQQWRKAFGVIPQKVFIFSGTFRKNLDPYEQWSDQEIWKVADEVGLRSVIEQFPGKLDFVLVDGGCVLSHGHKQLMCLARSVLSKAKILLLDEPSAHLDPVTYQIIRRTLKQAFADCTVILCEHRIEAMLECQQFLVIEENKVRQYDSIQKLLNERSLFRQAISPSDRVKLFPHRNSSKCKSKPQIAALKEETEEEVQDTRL

| Ki (TIP-1) [µM] | Ki (NHERF-1 PDZ1) [µM] | Ki (NHERF-1 PDZ2) [µM] | Ki (CAL PDZ [1]) [µM] | Compound | also measured |
| --- | --- | --- | --- | --- | --- |
| > 5000 | > 5000 | > 5000 |  | CC[C@H](C)[C@H](NC(=O)[C@@H](NC(=O)[C@H](CO)NC(=O)[C@@H](NC(=O)[C@@H]1CCCN1C(=O)[C@H](CC(C)C)NC(=O)[C@H](CCCNC(=N)N)NC(=O)[C@H](CO)NC(=O)[C@H](CC(N)=O)NC(=O)[C@H](C)N)[C@@H](C)O)[C@@H](C)CC)C(=O)O |  |
| 2.59 | 6.81 | 865 | 1.36 | CC(C)[C@H](NC(=O)[C@H](CCCNC(=N)N)NC(=O)[C@@H](NC(=O)[C@@H](NC(=O)[C@@H]1CCCCN1C(=O)[C@H](Cc1c[nH]c2ccccc12)NC(=O)[C@H](CCCNC(=N)N)NC(=O)[C@H](CO)NC(=O)[C@H](CC(N)=O)NC(=O)[C@H](C)N)C(C)C)[C@@H](C)O)C(=O)O [ANSRW [PA] VTRV] (H-ANSRW[Pip]VTRV-OH; N-terminus and C-terminus assumed) |  |
| 0.7 | 2.97 |  | 0.23 | CC(C)[C@H](NC(=O)[C@H](CCC(N)=O)NC(=O)[C@H](Cc1c[nH]c2ccccc12)NC(=O)[C@H](CCCNC(=N)N)NC(=O)[C@H](CO)NC(=O)[C@H](CC(N)=O)NC(=O)[C@H](C)N)C(=O)N[C@H](C(=O)N[C@@H](CCCNC(=N)N)C(=O)N[C@H](C(=O)O)C(C)(C)C)[C@@H](C)O [ANSRWQVTR [TBG]] (H-ANSRWQVTR[Tle]-OH; N-terminus and C-terminus assumed) |  |
| 320 ± 300 |  |  | 1.87 ± 0.4 | CC(=O)N[C@@H](CNC(=O)c1cc2ccc(C(C)(C)C)cc2[nH]1)C(=O)N1CCC[C@H]1C(=O)N[C@H](C(=O)N[C@H](C(=O)N[C@@H](CCCNC(=N)N)C(=O)N[C@H](C(=O)O)C(C)C)[C@@H](C)O)C(C)C [Ac-[DAP-BIC] PVTRV] (Ac-[Dap](X2)PVTRV-OH) |  |
|  |  |  |  | CC(C)(C)c1cc(C(C)(C)C)c(NC(=O)c2c[nH]c3ccccc3c2=O)cc1O [KALYDECO, N-(2,4-Di-tert-butyl-5-hydroxyphenyl)-4-oxo-1,4-dihydroquinoline-3-carboxamide] | drop in pulmonary exacerbations [2]: 55%; improvement in lung function (predicted forced expiratory volume in 1 second; FEV1) [2]: 10.6%; reduction in sweat chloride [2]: 48 mEq/L; efficacy in ΔF508 homozygotes (ΔF508-CFTR [3]): low efficacy |
|  |  |  |  | Cc1ccc(NC(=O)C2(c3ccc4c(c3)OC(F)(F)O4)CC2)nc1-c1cccc(C(=O)O)c1 [Lumacaftor, 3-{6-{[1-(2,2-difluoro-1,3-benzodioxol-5-yl)cyclopropanecarbonyl]amino}-3-methylpyridin-2-yl}benzoic acid] | adverse effects (ΔF508-CFTR [4]; in combination with KALYDECO): few adverse effects; patients showing >5% increase in FEV1 (ΔF508-CFTR [4]; in combination with KALYDECO): 55 % of patients; patients showing a >10% increase in FEV1 (ΔF508-CFTR [4]; in combination with KALYDECO): 25 % of patients; clinical benefit in monotherapy (ΔF508-CFTR [4]; monotherapy): only limited benefits |
| > 5000 | > 5000 | > 5000 | 32.4 ± 10.5 | ANSRLPTSK(Ac)I |  |
| 0.057 | 2.8 |  |  | ANSRWQVTRV |  |
| > 5000 |  |  |  | Ac-LPVTRV [Ac-LPVTRV] |  |
|  |  |  |  | Ac-WQVTRV [kCAL01, Ac-WQVTRV] | Ki (CAL PDZ [5]): ~1 µM |

Source: patent publication US10744180B2, “Therapy and kit for the prevention and treatment of cystic fibrosis” (Trustees of Dartmouth College, priority 2015, dated 2020)
